Assay results taken from ChEMBL document CHEMBL4811258, “Potent Antimalarials with Development Potential Identified by Structure-Guided Computational Optimization of a Pyrrole-Based Dihydroorotate Dehydrogenase Inhibitor Series” (J Med Chem, 2021).

Key:
[1] = target: Dihydroorotate dehydrogenase (quinone), mitochondrial (Homo sapiens, UniProt Q02127); assay type: ADME
[2] = Inhibition of Plasmodium falciparum DHODH expressed in Escherichia coli BL21-DE3 using L-dihydroorotate as substrate by steady-state DCIP method
Plasmodium falciparum [3] = experiment: microbe, parasite or virus in culture; details: 3D7, 72 h
[4] = Inhibition of Plasmodium vivax DHODH expressed in Escherichia coli BL21-DE3 using L-dihydroorotate as substrate by steady-state DCIP method
Plasmodium falciparum [5] = test system: Plasmodium falciparum

Chain of Dihydroorotate dehydrogenase (quinone), mitochondrial (Q02127 whole entry): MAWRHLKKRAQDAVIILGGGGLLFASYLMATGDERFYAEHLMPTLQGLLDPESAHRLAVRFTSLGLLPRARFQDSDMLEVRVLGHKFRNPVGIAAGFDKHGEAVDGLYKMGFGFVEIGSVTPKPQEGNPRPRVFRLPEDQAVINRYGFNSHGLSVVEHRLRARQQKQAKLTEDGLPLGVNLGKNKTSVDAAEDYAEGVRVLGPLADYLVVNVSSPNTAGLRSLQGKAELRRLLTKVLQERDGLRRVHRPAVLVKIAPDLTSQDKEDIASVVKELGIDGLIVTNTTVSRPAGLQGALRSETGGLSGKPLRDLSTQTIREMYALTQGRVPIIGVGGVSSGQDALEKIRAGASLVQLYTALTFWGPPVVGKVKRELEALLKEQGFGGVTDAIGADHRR

SMILES | IC50 [1] | IC50 [2] | EC50 (Plasmodium falciparum [3]) | IC50 [4] | EC50 (Plasmodium falciparum [5])
Cc1c(Cc2ccc(C(F)(F)F)cc2F)c[nH]c1C(=O)NC1CC1 | > 100000 nM | 44 nM |  |  | 
CCOC(=O)c1[nH]cc(Cc2nc3ccccc3o2)c1C | > 100000 nM | 900 nM | 1600 nM |  | 
Cc1c(C2(c3ccc(C(F)(F)F)nc3)CC2)c[nH]c1C(=O)N1CC(F)(F)C1 | > 100000 nM | 21 nM | 2 nM | 17 nM | 
Cc1c(Cc2ccc(C(F)(F)F)nc2F)c[nH]c1C(=O)NC1CC1 | > 100000 nM | 11 nM | 3.1 nM | 5.4 nM | 
N#Cc1c(Cc2ccc(C(F)(F)F)nc2)c[nH]c1C(=O)NC1CC1 | > 100000 nM | 410 nM | 250 nM | 430 nM | 
Cc1c(C2(c3ccc(C(F)(F)F)nc3)CC2)c[nH]c1C(=O)NC1CC1 | > 100000 nM | 19 nM | > 10000 nM | 11 nM | 
Cc1c(-c2c[nH]c3nc(C(F)(F)F)ccc23)c[nH]c1C(=O)NC1CC1 | > 100000 nM | 120 nM | 13 nM | 10 nM | 
CCOC(=O)c1[nH]cc(Cc2cccc3ncoc23)c1C | > 100000 nM | 100 nM | 220 nM | 13 nM | 
Cc1c(Cc2nc3ccccc3o2)c[nH]c1C(=O)NC1CC1 | > 100000 nM | 670 nM | 600 nM |  | 
Cc1c(C(=O)NC2CC2)[nH]c(Cl)c1Cc1ccc(C(F)(F)F)nc1 | > 100000 nM | 120 nM | 32 nM | 17 nM | 
CCOC(=O)c1[nH]cc(Cc2ccc(C(F)(F)F)c3ncoc23)c1C | > 100000 nM | 47 nM | 24 nM | 16 nM | 
Cc1c(Cc2ccc(C(F)(F)F)nc2F)c[nH]c1C(=O)NCC(F)(F)F | > 100000 nM | 79 nM | 20 nM | 53 nM | 
Cc1c(Cc2ccc(C(F)(F)F)nc2F)c[nH]c1C(=O)N1CC(F)(F)C1 | > 100000 nM | 16 nM | 2.6 nM | 12 nM | 
Cc1c(C2(c3ccc(C(F)(F)F)nc3)CC2)c[nH]c1C(=O)NC(C)c1cc(C(N)=O)[nH]n1 (racemic) |  | 260 nM |  | 180 nM | 3000 nM
Cc1cc(C(C)NC(=O)c2[nH]cc(C(C)c3ccc(C(F)(F)F)nc3)c2C)no1 (racemic) | > 100000 nM | 79 nM | 3 nM | 74 nM | 
Cc1c(Cc2ccc(C(F)(F)F)nc2)c[nH]c1C(=O)NC(C)c1cc(C(N)=O)[nH]n1 (racemic) |  | 650 nM |  | 430 nM | 51 nM
Cc1c(Cc2ccc(C(F)(F)F)nc2)c[nH]c1C(=O)NC(C)c1cn[nH]c1 (racemic) |  | 61 nM |  | 48 nM | 9 nM
Cc1c(Cc2ccc(C(F)(F)F)nc2)c[nH]c1C(=O)NC(C)c1cnn(C)c1 (racemic) |  |  |  | 62 nM | 5.5 nM
Cc1cc(C(C)NC(=O)c2[nH]cc(Cc3ccc(F)c4ccncc34)c2C)no1 (racemic) | > 100000 nM | 36 nM | 2.2 nM | 48 nM | 
Cc1c(Cc2ccc(C(F)(F)F)nc2)c[nH]c1C(=O)NC(C)c1nc[nH]n1 (racemic) |  | 260 nM |  | 120 nM | 160 nM
Cc1c(Cc2ccc(C(F)(F)F)nc2)c[nH]c1C(=O)NC(C)c1cc(Br)no1 (racemic) | > 100000 nM | 70 nM | 120 nM | 20 nM | 
Cc1c(Cc2ccc(C(F)(F)F)cc2)c[nH]c1C(=O)NC(C)c1cc(Br)no1 (racemic) | > 100000 nM | 380 nM | 260 nM | 39 nM | 
Cc1c(-c2n[nH]c3cc(C(F)(F)F)ccc23)c[nH]c1C(=O)NC(C)c1cc(C(N)=O)[nH]n1 (racemic) |  | 32000 nM | 500 nM |  | 
Cc1cc(C(C)NC(=O)c2[nH]cc(Cc3cccc4ccncc34)c2C)no1 (racemic) | > 100000 nM | 30 nM | 3.7 nM | 21 nM | 
Cc1cc(C(C)NC(=O)c2[nH]cc(Cc3ccc(C(F)(F)F)nc3)c2C)no1 (racemic) |  |  |  | 30 nM | 9 nM
Cc1nc(C(C)NC(=O)c2[nH]cc(Cc3ccc(C(F)(F)F)nc3)c2C)no1 (racemic) | > 100000 nM | 370 nM | 190 nM | 100 nM | 
Cc1c(Cc2ccc(C(F)(F)F)cc2Br)c[nH]c1C(=O)NC(C)c1nc[nH]n1 (racemic) | > 100000 nM | 950 nM | 990 nM | 260 nM | 

SMILES | IC50 [1] | IC50 [2] | EC50 (Plasmodium falciparum [3]) | IC50 [4] | EC50 (Plasmodium falciparum [5])
COC(c1ccc(C(F)(F)F)nc1)c1c[nH]c(C(=O)NC(C)c2cc(C)on2)c1C (racemic) | > 100000 nM | 150 nM | 40 nM | 100 nM | 
Cc1c(Cc2ccc(C(F)(F)F)nc2F)c[nH]c1C(=O)NC(C)c1nc[nH]n1 (racemic) | > 100000 nM | 990 nM | 580 nM | 730 nM | 
Cc1nc(C(C)NC(=O)c2[nH]cc(Cc3ccc(C(F)(F)F)nc3)c2C)n[nH]1 (racemic) | > 100000 nM | 680 nM | 380 nM | 320 nM | 
Cc1cc(C(C)NC(=O)c2[nH]cc(C(O)c3ccc(C(F)(F)F)nc3)c2C)no1 (racemic) | > 100000 nM | 180 nM | 22 nM | 130 nM | 
Cc1cc(C(C)NC(=O)c2[nH]cc(C(C#N)c3ccc(C(F)(F)F)nc3)c2C)no1 (racemic) | > 100000 nM | 270 nM | 21 nM | 410 nM | 
Cc1nc(C(C)NC(=O)c2[nH]cc(Cc3ccc(C(F)(F)F)nc3)c2C)c[nH]1 (racemic) | > 100000 nM | 13000 nM | 380 nM | 500 nM | 
Cc1[nH]c(C(=O)NC(C)c2nc[nH]n2)c(C)c1Cc1ccc(C(F)(F)F)nc1 (stereo in doubt; form 1) |  | 290 nM |  | 140 nM | 140 nM
Cc1cc(C(C)NC(=O)c2[nH]c(C)c(Cc3ccc(C(F)(F)F)nc3)c2C)no1 (stereo in doubt; form 1) |  | 65 nM |  | 30 nM | 12 nM
Cc1c(Cc2ccc(C(F)(F)F)nc2)c[nH]c1C(=O)NC(C)c1cc(C(N)=O)[nH]n1 (stereo in doubt; form 1) |  | 35000 nM |  | 230 nM | 24 nM
Cc1c(Cc2ccc(F)c3ccncc23)c[nH]c1C(=O)NC(C)c1nc[nH]n1 (stereo in doubt; form 1) |  | 44 nM |  | 29 nM | 9.5 nM
Cc1c(C2(c3cccc(C(F)(F)F)c3)CC2)c[nH]c1C(=O)NC(C)c1nc[nH]n1 (stereo in doubt; form 1) |  | 110 nM |  | 40 nM | 48 nM
Cc1c(Cc2ccc(C(F)(F)F)nc2)c[nH]c1C(=O)NC(C)c1nc[nH]n1 (stereo in doubt; form 1) |  | 250 nM |  | 110 nM | 66 nM
Cc1cc(C(C)NC(=O)c2[nH]cc(C3(c4ccc(C(F)(F)F)nc4)CC3)c2C)no1 (stereo in doubt; form 1) |  | 16 nM |  | 30 nM | 11 nM
Cc1c(C2(c3ccc(C(F)(F)F)c(F)c3)CC2)c[nH]c1C(=O)NC(C)c1nc[nH]n1 (stereo in doubt; form 1) |  | 110 nM |  | 61 nM | 29 nM
Cc1[nH]c(C(=O)NC(C)c2cn[nH]c2)c(C)c1Cc1ccc(C(F)(F)F)nc1 (stereo in doubt; form 1) |  | 87 nM |  | 88 nM | 6 nM
Cc1cc(C(C)NC(=O)c2[nH]cc(Cc3ccc(C(F)(F)F)cc3)c2C)no1 (stereo in doubt; form 1) |  | 46 nM |  | 13 nM | 170 nM
Cc1cc(C(C)NC(=O)c2[nH]cc(Cc3ccc(C(F)(F)F)nc3)c2C)n[nH]1 (stereo in doubt; form 1) |  | 100 nM |  | 69 nM | 20 nM
Cc1c(Cc2ccc(C(F)(F)F)cc2F)c[nH]c1C(=O)NC(C)c1nc[nH]n1 (stereo in doubt; form 1) |  | 35000 nM |  | 73 nM | 150 nM
Cc1c(Cc2ccc(C(F)(F)F)nc2)c[nH]c1C(=O)NC(C)c1cc(C#N)[nH]n1 (stereo in doubt; form 1) |  | 120 nM |  | 83 nM | 17 nM
[2H]C([2H])(c1ccc(C(F)(F)F)nc1)c1c[nH]c(C(=O)NC(C)c2cc(C)on2)c1C (stereo in doubt; form 1) |  |  | 4.7 nM | 9.1 nM | 
Cc1c(C(=O)NC(C)c2nc[nH]n2)[nH]c(Cl)c1Cc1ccc(C(F)(F)F)nc1 (stereo in doubt; form 2) |  | 200 nM |  | 63 nM | 40 nM
Cc1cc(C(C)NC(=O)c2[nH]c(C)c(Cc3ccc(C(F)(F)F)nc3)c2C#N)no1 (stereo in doubt; form 2) |  | 95 nM |  | 99 nM | 64 nM
Cc1cc(C(C)NC(=O)c2[nH]cc(-c3n[nH]c4cc(C(F)(F)F)ccc34)c2C)no1 (stereo in doubt; form 2) |  | 560 nM |  | 69 nM | 62 nM
Cc1[nH]c(C(=O)N[C@H](C)c2cn[nH]c2)c(C#N)c1Cc1ccc(C(F)(F)F)nc1 (stereo in doubt; form 2) |  | 660 nM |  | 440 nM | 170 nM
Cc1cc(C(C)NC(=O)c2[nH]cc(-c3c[nH]c4cc(C(F)(F)F)ccc34)c2C)no1 (stereo in doubt; form 2) | > 100000 nM | 660 nM |  | 58 nM | 85 nM
Cc1[nH]c(C(=O)NC(C)c2cnn(C)c2)c(C)c1Cc1ccc(C(F)(F)F)nc1 (stereo in doubt; form 2) |  | 88 nM |  | 76 nM | 17 nM
Cc1c(C(=O)NC(C)c2nc[nH]n2)[nH]c(Cl)c1Cc1ccc(C(F)(F)F)nc1 (stereo in doubt; form 4) |  | 290 nM |  | 100 nM | 130 nM
